Results as given in US20260001871A1, “TRIAZOLE DERIVATIVES AS MODULATORS OF MAS-RELATED G-PROTEIN RECEPTOR D” (ESCIENT PHARMACEUTICALS, INC., priority 2022, published 2026).

Target: human MRGPRD (Homo sapiens, UniProt Q8TDS7)
Assay: MRGPRD antagonist activity, IP-One HTRF assay in CHO cells stably expressing human MRGPRD (versus 100 μM β-Alanine agonist)
Format: cell-based
In short: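 IP-1 HTRF read-out, with IC50 from HTRF ratio curves and percent antagonism relative to maximal efficacy (mean, SEM). Antagonists and agonist were co-incubated 1 h at 37 °C plus 1 h at room temperature on overnight-plated MRGPRD-CHO cells in LiCl-containing Tris buffer, pH 8.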

Sequence of human MRGPRD (Q8TDS7 whole entry): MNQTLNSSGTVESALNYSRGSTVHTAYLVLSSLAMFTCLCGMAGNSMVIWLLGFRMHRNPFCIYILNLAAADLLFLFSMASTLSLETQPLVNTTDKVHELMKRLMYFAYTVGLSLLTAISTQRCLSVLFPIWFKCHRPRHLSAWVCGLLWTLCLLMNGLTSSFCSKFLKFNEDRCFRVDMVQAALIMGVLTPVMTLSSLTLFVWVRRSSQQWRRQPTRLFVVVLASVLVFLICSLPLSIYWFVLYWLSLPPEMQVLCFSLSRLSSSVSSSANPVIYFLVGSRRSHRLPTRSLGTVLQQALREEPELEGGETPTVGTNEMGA

| Structure (SMILES) | IC50 |
| --- | --- |
| Cc1c(-c2cccc(-n3nnc(C(=O)Nc4ccncc4)c3C3CC3)c2)cnn1C [Compound 7-305] | 1000 to 3000 nM |
| CCCn1cc(-c2cccc(-n3nnc(C(=O)Nc4ccncc4)c3C3CC3)c2)cn1 [Compound 7-306] | 1000 to 3000 nM |
| O=C(Nc1ccncc1)c1nnn(-c2cccc(-c3ccc(Cl)cc3)c2)c1C1CC1 [Compound 7-307] | 1000 to 3000 nM |
| O=C(Nc1ccncc1)c1nnn(-c2cccc(-c3cccc(F)c3)c2)c1C1CC1 [Compound 7-308] | 1000 to 3000 nM |
| CCn1cc(-c2cccc(-n3nnc(C(=O)Nc4ccncc4)c3C3CC3)c2)cn1 [Compound 7-309] | 1000 to 3000 nM |
| O=C(Nc1ccncc1)c1nnn(-c2cccc(-c3cn[nH]c3)c2)c1C1CC1 [Compound 7-310] | 1000 to 3000 nM |
| O=C(Nc1ccncc1)c1nnn(-c2cccc(-c3ccc(F)cc3)c2)c1C1CC1 [Compound 7-311] | 1000 to 3000 nM |
| O=C(Nc1ccncc1)c1nnn(-c2cccc(-c3ccc(-c4ccccc4)cc3)c2)c1C1CC1 [Compound 7-312] | 1000 to 3000 nM |
| COc1ccc(-c2cccc(-n3nnc(C(=O)Nc4ccncc4)c3C3CC3)c2)cc1OC [Compound 7-313] | 1000 to 3000 nM |
| O=C(Nc1ccncc1)c1nnn(-c2cccc(-c3cnn(C4CC4)c3)c2)c1C1CC1 [Compound 7-314] | 1000 to 3000 nM |
| Cc1cc(-n2nnc(C(=O)Nc3ccncc3)c2C2CC2)ccc1-c1c(C)nn(C)c1C [Compound 7-315] | 1000 to 3000 nM |
| Cc1nn(C)cc1-c1cccc(-n2nnc(C(=O)Nc3ccncc3)c2C2CC2)c1 [Compound 7-316] | 1000 to 3000 nM |
| CCc1ccc(-n2nnc(C(=O)Nc3ccncc3)c2C2CC2)cc1-c1cccc(C(C)=O)c1 [Compound 7-317] | 1000 to 3000 nM |
| Cc1ccc(-c2cccc(-n3nnc(C(=O)Nc4ccncc4)c3C3CC3)c2)cc1 [Compound 7-318] | 1000 to 3000 nM |
| Cc1cc(-n2nnc(C(=O)Nc3ccncc3)c2C2CC2)ccc1-c1ccc(C#N)cc1 [Compound 7-319] | 1000 to 3000 nM |
| COc1ccccc1-c1cccc(-n2nnc(C(=O)Nc3ccncc3)c2C2CC2)c1 [Compound 7-320] | 1000 to 3000 nM |
| Cc1cccc(-c2cccc(-n3nnc(C(=O)Nc4ccncc4)c3C3CC3)c2)c1 [Compound 7-321] | 1000 to 3000 nM |
| Cc1ccccc1-c1cccc(-n2nnc(C(=O)Nc3ccncc3)c2C2CC2)c1 [Compound 7-322] | 1000 to 3000 nM |
| CCc1cccc(-c2cccc(-n3nnc(C(=O)Nc4ccncc4)c3C3CC3)c2)c1 [Compound 7-323] | 1000 to 3000 nM |
| O=C(Nc1ccncc1)c1nnn(-c2cccc(-c3cccc(Cl)c3)c2)c1C1CC1 [Compound 7-324] | 1000 to 3000 nM |
| Cc1nn(C)c(C)c1-c1cccc(-n2nnc(C(=O)Nc3ccncc3)c2C2CC2)c1 [Compound 7-325] | 1000 to 3000 nM |
| Cn1cc(-c2cccc(-n3nnc(C(=O)Nc4ccncc4)c3C3CC3)c2)cn1 [Compound 7-326] | 1000 to 3000 nM |
| O=C(Nc1ccncc1)c1nnn(-c2ccc(-c3ccccc3-c3ccccc3)cc2)c1C1CC1 [Compound 7-327] | 1000 to 3000 nM |
| O=C(Nc1ccncc1)c1nnn(-c2cccc(-c3cccc(-c4ccccc4)c3)c2)c1C1CC1 [Compound 7-328] | > 3000 nM |

| Structure (SMILES) | IC50 |
| --- | --- |
| O=C(Nc1ccncc1)c1nnn(-c2cccc(-c3cnn(C(F)F)c3)c2)c1C1CC1 [Compound 7-329] | > 3000 nM |
| N#CCc1ccc(-c2cccc(-n3nnc(C(=O)NC4(c5cccnc5)CC4)c3C3CC3)c2)c(F)c1 [Compound 7-330] | > 3000 nM |
| Cc1nn(C)c(C)c1-c1ccc(-n2nnc(C(=O)Nc3ccncc3)c2C2CC2)cc1C(F)(F)F [Compound 7-331] | > 3000 nM |
| Cc1ccc(CNC(=O)c2nnn(-c3cccc(-c4ccn(C)n4)c3)c2C2CC2)cn1 [Compound 7-332] | > 3000 nM |
| Cc1ccc(CNC(=O)c2nnn(-c3cccc(-c4cnn(C5CC5)c4)c3)c2C2CC2)cn1 [Compound 7-333] | > 3000 nM |
| N#Cc1ccccc1-c1cccc(-n2nnc(C(=O)Nc3ccncc3)c2C2CC2)c1 [Compound 7-334] | > 3000 nM |
| Cc1nn(C)c(C)c1-c1ccc(-n2nnc(C(=O)Nc3ccncc3)c2C2CC2)cc1OC(F)(F)F [Compound 7-335] | > 3000 nM |
| Cc1cc(NC(=O)c2nnn(-c3ccc(-c4c(C)nn5ccccc45)cc3)c2C2CC2)ccn1 [Compound 8-1] | < 100 nM |
| Cc1cc(NC(=O)c2nnn(-c3ccc(-c4c(C)nn(C5CCC5)c4C)cc3)c2C2CC2)ccn1 [Compound 8-2, 1-(4-(1-cyclobutyl-3,5-dimethyl-1H-pyrazol-4-yl)phenyl)-5-cyclopropyl-N-(2-methylpyridin-4-yl)-1H-1,2,3-triazole-4-carboxamide] | < 100 nM |
| Cc1ccc(CNC(=O)c2nnn(-c3ccc(-c4c(C)nn(C)c4F)cc3)c2C2CC2)cn1 [Compound 8-3] | 100 to 500 nM |
| Cc1ccc(CNC(=O)c2nnn(-c3ccc(-c4cnn5c4CCC5)cc3)c2C2CC2)cn1 [Compound 8-4] | 1000 to 3000 nM |
| CCn1nc(C)c(-c2ccc(-n3nnc(C(=O)Nc4ccnc(C)c4)c3C3CC3)cc2)c1C [Compound 9-1, 5-cyclopropyl-1-(4-(1-ethyl-3,5-dimethyl-1H-pyrazol-4-yl)phenyl)-N-(2-methylpyridin-4-yl)-1H-1,2,3-triazole-4-carboxamide] | < 100 nM |
| CCc1cc(NC(=O)c2nnn(-c3ccc(-c4c(C)nn(C)c4C)cc3)c2C2CC2)ccn1 [Compound 9-2] | < 100 nM |
| CCc1cc(NC(=O)c2nnn(-c3ccc(-c4c(C)nn(-c5ccccc5)c4C)cc3)c2C2CC2)ccn1 [Compound 9-3] | < 100 nM |
| Cc1ncccc1CNC(=O)c1nnn(-c2ccc(-c3c(C)nn(-c4ccccc4)c3C)cc2)c1C1CC1 [Compound 9-4] | < 100 nM |
| CCn1nc(C)c(-c2ccc(-n3nnc(C(=O)NCc4cccnc4C)c3C3CC3)cc2)c1C [Compound 9-5] | < 100 nM |
| Cc1ccc(C2(NC(=O)c3nnn(-c4ccc(-c5c(C)nn(-c6ccccc6)c5C)cc4)c3C3CC3)CC2)cn1 [Compound 9-6] | < 100 nM |
| Cc1ccc(C2(NC(=O)c3nnn(-c4ccc(-c5ccc(C#N)c(F)c5)cc4)c3C3CC3)CC2)cn1 [Compound 9-7] | 100 to 500 nM |
| Cc1nn(-c2ccccc2)c(C)c1-c1ccc(-n2nnc(C(=O)NC3(c4cncc(Cl)c4)CC3)c2C2CC2)cc1 [Compound 9-8] | 100 to 500 nM |
| Cc1nn(C)c(C)c1-c1ccc(-n2nnc(C(=O)NCc3ccc(C(C)C)nc3)c2C2CC2)cc1 [Compound 9-9] | 100 to 500 nM |
| CCn1nc(C)c(-c2ccc(-n3nnc(C(=O)NCc4ccc(C)nc4)c3C3CC3)cc2)c1C [Compound 9-10] | 100 to 500 nM |
| CCn1cc(CNC(=O)c2nnn(-c3ccc(-c4c(C)nn(CC)c4C)cc3)c2C2CC2)cn1 [Compound 9-11] | 100 to 500 nM |
| Cc1cncc(CNC(=O)c2nnn(-c3ccc(-c4c(C)nn(-c5ccccc5)c4C)cc3)c2C2CC2)c1 [Compound 9-12] | 100 to 500 nM |
| CCc1ccc(C2(NC(=O)c3nnn(-c4ccc(-c5ccc(C#N)c(F)c5)cc4)c3C3CC3)CC2)cn1 [Compound 9-13] | 100 to 500 nM |

| Structure (SMILES) | IC50 |
| --- | --- |
| Cc1nn(-c2ccccc2)c(C)c1-c1ccc(-n2nnc(C(=O)NCc3cccnc3)c2C2CC2)cc1 [Compound 9-14] | 100 to 500 nM |
| Cc1nn(-c2ccccc2)c(C)c1-c1ccc(-n2nnc(C(=O)NCc3ccc(C(C)C)nc3)c2C2CC2)cc1 [Compound 9-15] | 100 to 500 nM |
| CCc1cc(NC(=O)c2nnn(-c3ccc(-c4c(C)nn(CC)c4C)cc3)c2C2CC2)ccn1 [Compound 9-16] | 100 to 500 nM |
| CCc1ccc(C2(NC(=O)c3nnn(-c4ccc(-c5ccc(C#N)cc5C)cc4)c3C3CC3)CC2)cn1 [Compound 9-17] | 100 to 500 nM |
| CCn1nc(C)c(-c2ccc(-n3nnc(C(=O)NCc4cnn(C)c4)c3C3CC3)cc2)c1C [Compound 9-18] | 100 to 500 nM |
| CCn1nc(C)c(-c2ccc(-n3nnc(C(=O)NCc4cncc(C)c4)c3C3CC3)cc2)c1C [Compound 9-19] | 100 to 500 nM |
| CCc1ccc(C2(NC(=O)c3nnn(-c4ccc(-c5c(C)nn(-c6ccccc6)c5C)cc4)c3C3CC3)CC2)cn1 [Compound 9-20] | 100 to 500 nM |
| CCn1nc(C)c(-c2ccc(-n3nnc(C(=O)NCc4ccc(C(C)C)nc4)c3C3CC3)cc2)c1C [Compound 9-21] | 100 to 500 nM |
| Cc1ccc(C2(NC(=O)c3nnn(-c4ccc(-c5ccc(C#N)cc5C)cc4)c3C3CC3)CC2)cn1 [Compound 9-22] | 100 to 500 nM |
| CCn1nc(C)c(-c2ccc(-n3nnc(C(=O)NCc4cnccc4C)c3C3CC3)cc2)c1C [Compound 9-23] | 100 to 500 nM |
| COc1ccc(C2(NC(=O)c3nnn(-c4ccc(-c5ccc(C#N)cc5C)cc4)c3C3CC3)CC2)cn1 [Compound 9-24] | 100 to 500 nM |
| CCn1nc(C)c(-c2ccc(-n3nnc(C(=O)NCc4cccnc4)c3C3CC3)cc2)c1C [Compound 9-25] | 100 to 500 nM |
| Cc1ccncc1CNC(=O)c1nnn(-c2ccc(-c3c(C)nn(-c4ccccc4)c3C)cc2)c1C1CC1 [Compound 9-26] | 500 to 1000 nM |
| Cc1nn(-c2ccccc2)c(C)c1-c1ccc(-n2nnc(C(=O)Nc3ccc(NS(C)(=O)=O)cc3)c2C2CC2)cc1 [Compound 9-27] | 500 to 1000 nM |
| CCn1nc(C)c(-c2ccc(-n3nnc(C(=O)Nc4ccc(NS(C)(=O)=O)cc4)c3C3CC3)cc2)c1C [Compound 9-28] | 500 to 1000 nM |
| Cc1nn(-c2ccccc2)c(C)c1-c1ccc(-n2nnc(C(=O)N3Cc4cnn(C)c4C3)c2C2CC2)cc1 [Compound 9-29] | 500 to 1000 nM |
| Cc1ccc(NC(=O)c2nnn(-c3ccc(-c4ccc(C#N)cc4C)cc3)c2C2CC2)cn1 [Compound 9-30] | 1000 to 3000 nM |
| CCc1ccc(C2(NC(=O)c3nnn(-c4ccc(-c5c(C)nn(CC)c5C)cc4)c3C3CC3)CC2)cn1 [Compound 9-31] | 1000 to 3000 nM |
| CCn1nc(C)c(-c2ccc(-n3nnc(C(=O)N4Cc5cnn(C)c5C4)c3C3CC3)cc2)c1C [Compound 9-32] | 1000 to 3000 nM |
| CCc1ccc(C2(NC(=O)c3nnn(-c4ccc(-c5c(C)nn(C)c5C)cc4)c3C3CC3)CC2)cn1 [Compound 9-33] | 1000 to 3000 nM |
| Cc1nn(C)c(C)c1-c1ccc(-n2nnc(C(=O)Nc3ccc(NS(C)(=O)=O)cc3)c2C2CC2)cc1 [Compound 9-34] | 1000 to 3000 nM |
| COc1ccc(C2(NC(=O)c3nnn(-c4ccc(-c5ccc(C#N)c(F)c5)cc4)c3C3CC3)CC2)cn1 [Compound 9-35] | 100 to 500 nM |
